For experiment [1], the target named is CRBN-DDB1 protein complex (Homo sapiens, UniProt Q96SW2). Nature of the experiment: Fluorescence Polarization (FP) assay, displacement of Cy5-labelled thalidomide. The following applies: 25 nM CRBN-DDB1, 5 nM Cy5-labelled thalidomide, read-out: CRBN binding Ki. As for the experimental part: CRBN-DDB1 protein complex was mixed with Cy5-labelled thalidomide and a compound to be tested (the “test compound”). […] The test solution was added to a 384-well assay plate.
Sequence of CRBN-DDB1 protein complex (Q96SW2 whole entry): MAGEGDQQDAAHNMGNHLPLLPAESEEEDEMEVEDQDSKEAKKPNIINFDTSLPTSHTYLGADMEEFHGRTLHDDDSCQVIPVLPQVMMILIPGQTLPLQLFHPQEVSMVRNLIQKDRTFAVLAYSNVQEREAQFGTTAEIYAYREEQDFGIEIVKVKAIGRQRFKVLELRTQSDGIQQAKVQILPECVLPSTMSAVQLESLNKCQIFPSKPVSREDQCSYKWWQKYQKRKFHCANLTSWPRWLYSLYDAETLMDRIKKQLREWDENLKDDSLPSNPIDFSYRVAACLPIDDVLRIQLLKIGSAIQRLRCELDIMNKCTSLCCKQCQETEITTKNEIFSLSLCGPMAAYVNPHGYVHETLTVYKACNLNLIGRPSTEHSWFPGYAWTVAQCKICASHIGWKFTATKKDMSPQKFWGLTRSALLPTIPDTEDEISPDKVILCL
Sequence of CRBN-DDB1 protein complex (Q16531 whole entry partner): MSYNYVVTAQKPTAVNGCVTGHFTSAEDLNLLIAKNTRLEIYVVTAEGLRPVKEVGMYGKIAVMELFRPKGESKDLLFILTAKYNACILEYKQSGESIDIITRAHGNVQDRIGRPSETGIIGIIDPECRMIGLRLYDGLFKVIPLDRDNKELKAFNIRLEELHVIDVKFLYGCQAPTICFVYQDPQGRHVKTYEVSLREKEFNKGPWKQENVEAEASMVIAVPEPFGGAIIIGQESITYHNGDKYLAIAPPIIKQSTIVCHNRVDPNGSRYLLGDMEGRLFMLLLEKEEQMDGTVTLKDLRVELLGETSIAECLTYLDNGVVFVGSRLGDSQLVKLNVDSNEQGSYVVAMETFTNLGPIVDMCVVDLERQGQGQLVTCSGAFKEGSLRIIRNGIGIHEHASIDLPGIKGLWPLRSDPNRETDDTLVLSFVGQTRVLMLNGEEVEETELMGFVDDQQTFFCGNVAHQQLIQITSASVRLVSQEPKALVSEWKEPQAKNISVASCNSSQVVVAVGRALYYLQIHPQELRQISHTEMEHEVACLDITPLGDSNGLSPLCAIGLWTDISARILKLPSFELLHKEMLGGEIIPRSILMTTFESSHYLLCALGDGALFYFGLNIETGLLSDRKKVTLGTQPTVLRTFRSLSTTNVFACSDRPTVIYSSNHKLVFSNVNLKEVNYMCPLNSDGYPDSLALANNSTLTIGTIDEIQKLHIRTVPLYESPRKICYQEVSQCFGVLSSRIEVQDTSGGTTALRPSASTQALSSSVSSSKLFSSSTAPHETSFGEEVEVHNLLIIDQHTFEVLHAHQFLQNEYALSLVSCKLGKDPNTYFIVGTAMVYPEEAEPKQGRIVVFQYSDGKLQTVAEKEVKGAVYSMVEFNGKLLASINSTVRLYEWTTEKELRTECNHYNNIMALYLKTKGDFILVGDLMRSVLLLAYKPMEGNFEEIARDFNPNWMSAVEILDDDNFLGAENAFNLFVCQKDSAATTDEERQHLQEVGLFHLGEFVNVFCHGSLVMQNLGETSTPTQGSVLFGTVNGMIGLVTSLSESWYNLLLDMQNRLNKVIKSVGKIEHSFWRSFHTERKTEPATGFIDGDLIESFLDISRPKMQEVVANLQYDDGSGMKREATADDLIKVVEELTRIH
The plate was spun-down (1 min, 1000 rpm, 22° C.) and then shaken using a VibroTurbulator for 10 min at room temperature (20-25° C.), with the frequency set to level 3. The assay plate with protein and the tracer was incubated for 60 min at room temperature (20-25° C.) prior to read-out with a plate reader.
The FP experiment was carried out with various concentrations of the test compounds in order to measure Ki values.

For experiment [2], the system named is IKZF1. In words: IKZF1 degradation assay, H929 cell line (Western blot densitometry). The class given is cell-based. The following applies: 20 μM. As for the experimental part:
Cells were seeded on 6- or 12-well plates, and the compounds to be tested were added at the desired concentration range. […] After 6 or 24 h incubation (3TC, 5% CO2), cells were harvested, washed and cell lysates were prepared using RIPA lysis buffer. The amount of protein was determined via BCA assay, and the appropriate quantity was then loaded on the precast gel for the protein separation. After primary and secondary Ab staining, the membranes were washed and signals developed. The densitometry analysis was implemented to obtain the numeric values used later in the protein level evaluation process. […] The treatment with all compounds was carried out for 24 h.

pKi: −log10 of the molar value.

In the case of `COc1csc(NC(C)=O)c1C(=O)NC1CCC(=O)NC1=O` (stereo not drawn) [Compound 8, N-(2,6-dioxopiperidin-3-yl)-2-acetamido-4-methoxythiophene-3-carboxamide], in experiment [1], the pKi is 5.00 to 5.30. The “% of IKZF1 protein reduction, IKZF 1 (24 H, 20 μM)” value (shortened to “% of IKZF1 protein reduction”) in experiment [2] is given as ≤25% (≤25% for 0-25% of IKZF1 protein reduction).
For `CC(C)(C)OC(=O)Nc1ncc(C(=O)NC2CCC(=O)NC2=O)s1` (stereo not drawn) [Compound 71, tert-butyl (5-((2,6-dioxopiperidin-3-yl)carbamoyl)thiazol-2-yl)carbamate], in that order: over 5.30 and ≤25% (≤25% for 0-25% of IKZF1 protein reduction).
For `Nc1sccc1C(=O)NC1CCC(=O)NC1=O` (stereo not drawn) [Compound 36, 2-amino-N-(2,6-dioxopiperidin-3-yl)thiophene-3-carboxamide], in that order: over 5.30 and ≤25% (≤25% for 0-25% of IKZF1 protein reduction).
The matching figures for `CCCCC(=O)Nc1sc(Cl)cc1C(=O)NC1CCC(=O)NC1=O` (stereo not drawn) [Compound 3, 5-chloro-N-(2,6-dioxopiperidin-3-yl)-2-pentanamidothiophene-3-carboxamide]: over 5.30 and ≤25% (≤25% for 0-25% of IKZF1 protein reduction).
Consider `Nc1sc(Cl)cc1C(=O)NC1CCC(=O)NC1=O` (stereo not drawn) [Compound 40, 2-amino-5-chloro-N-(2,6-dioxopiperidin-3-yl)thiophene-3-carboxamide], for which the negative logarithm of the Ki (pKi) in experiment [1] was over 5.30. In addition, in experiment [2], the “% of IKZF1 protein reduction” value was ≤25% (≤25% for 0-25% of IKZF1 protein reduction).
Take `CC(=O)Nc1cc(Cl)sc1C(=O)NC1CCC(=O)NC1=O` (stereo not drawn) [Compound 18, 5-chloro-N-(2,6-dioxopiperidin-3-yl)-3-acetamidothiophene-2-carboxamide]: the pKi in experiment [1] is 4.30 to 5.00. For the same molecule, the “% of IKZF1 protein reduction” value in experiment [2] is ≤25% (≤25% for 0-25% of IKZF1 protein reduction).
For `CC(=O)Nc1sc(C(F)(F)F)cc1C(=O)NC1CCC(=O)NC1=O` (stereo not drawn) [Compound 42, N-(2,6-dioxopiperidin-3-yl)-2-acetamido-5-(trifluoromethyl)thiophene-3-carboxamide], in that order: 5.00 to 5.30 and ≤25% (≤25% for 0-25% of IKZF1 protein reduction).
With `COc1sc(Cl)cc1C(=O)NC1CCC(=O)NC1=O` (stereo not drawn) [Compound 37, 5-chloro-N-(2,6-dioxopiperidin-3-yl)-2-methoxythiophene-3-carboxamide], the pKi in experiment [1] is over 5.30. For the same molecule, in experiment [2], the “% of IKZF1 protein reduction” value was ≤25% (≤25% for 0-25% of IKZF1 protein reduction).
`COc1ncc(C(=O)NC2CCC(=O)NC2=O)s1` (stereo not drawn) [Compound 75, N-(2,6-dioxopiperidin-3-yl)-2-methoxythiazole-5-carboxamide]: the pKi in experiment [1] was 4.30 to 5.00. Besides, the “% of IKZF1 protein reduction” value in experiment [2] is ≤25% (≤25% for 0-25% of IKZF1 protein reduction).
For the molecule `CS(=O)(=O)Nc1sccc1C(=O)NC1CCC(=O)NC1=O` (stereo not drawn) [Compound 13, N-(2,6-dioxopiperidin-3-yl)-2-methanesulfonamidothiophene-3-carboxamide], the pKi in experiment [1] was 5.00 to 5.30. In addition, the “% of IKZF1 protein reduction” value in experiment [2] is ≤25% (≤25% for 0-25% of IKZF1 protein reduction).
As for `O=C1CCC(NC(=O)c2cc(Cl)sc2NC(=O)Cc2ccccc2)C(=O)N1` (stereo not drawn) [Compound 46, 5-chloro-N-(2,6-dioxopiperidin-3-yl)-2-(2-phenylacetamido)thiophene-3-carboxamide], the pKi in experiment [1] is 5.00 to 5.30. Besides, the “% of IKZF1 protein reduction” value in experiment [2] was ≤25% (≤25% for 0-25% of IKZF1 protein reduction).
In the case of `CSc1ncc(C(=O)NC2CCC(=O)NC2=O)s1` (stereo not drawn) [Compound 76, N-(2,6-dioxopiperidin-3-yl)-2-(methylthio)thiazole-5-carboxamide], the pKi in experiment [1] is 4.30 to 5.00. In experiment [2], the “% of IKZF1 protein reduction” value was ≤25% (≤25% for 0-25% of IKZF1 protein reduction).
The matching figures for `CC(C)(C)OC(=O)Nc1sccc1C(=O)NC1CCC(=O)NC1=O` (stereo not drawn) [Compound 1, tert-butyl (3-((2,6-dioxopiperidin-3-yl)carbamoyl)thiophen-2-yl)carbamate]: 4.30 to 5.00 and ≤25% (≤25% for 0-25% of IKZF1 protein reduction).
As for `CC(=O)Nc1ccsc1C(=O)NC1CCC(=O)NC1=O` (stereo not drawn) [Compound 7, N-(2,6-dioxopiperidin-3-yl)-3-acetamidothiophene-2-carboxamide], the pKi in experiment [1] is 5.00 to 5.30. The “% of IKZF1 protein reduction” value in experiment [2] is given as ≤25% (≤25% for 0-25% of IKZF1 protein reduction).
For `CC(C)(C)c1ncc(C(=O)NC2CCC(=O)NC2=O)s1` (stereo not drawn) [Compound 73, 2-(tert-butyl)-N-(2,6-dioxopiperidin-3-yl)thiazole-5-carboxamide], in that order: 4.30 to 5.00 and ≤25% (≤25% for 0-25% of IKZF1 protein reduction).
For `CC(=O)Nc1sc(C#N)cc1C(=O)NC1CCC(=O)NC1=O` (stereo not drawn) [Compound 9, 5-cyano-N-(2,6-dioxopiperidin-3-yl)-2-acetamidothiophene-3-carboxamide], the pKi in experiment [1] was over 5.30. Besides, the “% of IKZF1 protein reduction” value in experiment [2] was ≤25% (≤25% for 0-25% of IKZF1 protein reduction).
For `CC(=O)Nc1sc(C2CC2)c(Cl)c1C(=O)NC1CCC(=O)NC1=O` (stereo not drawn) [Compound 19, 4-chloro-5-cyclopropyl-N-(2,6-dioxopiperidin-3-yl)-2-acetamidothiophene-3-carboxamide], in that order: 5.00 to 5.30 and ≤25% (≤25% for 0-25% of IKZF1 protein reduction).
For `CC(=O)Nc1sccc1C(=O)N(C)C1CCC(=O)NC1=O` (stereo not drawn) [Compound 5, N-(2,6-dioxopiperidin-3-yl)-2-acetamido-N-methylthiophene-3-carboxamide], in that order: 4.30 to 5.00 and ≤25% (≤25% for 0-25% of IKZF1 protein reduction).
With `CC(=O)Nc1sc(C2CC2)cc1C(=O)NC1CCC(=O)NC1=O` (stereo not drawn) [Compound 44, 5-cyclopropyl-N-(2,6-dioxopiperidin-3-yl)-2-acetamidothiophene-3-carboxamide], the pKi in experiment [1] was over 5.30. Further, in experiment [2], the “% of IKZF1 protein reduction” value is given as ≤25% (≤25% for 0-25% of IKZF1 protein reduction).
For the molecule `C[C@H](O)C(=O)Nc1sc(Cl)cc1C(=O)NC1CCC(=O)NC1=O` (stereo partly drawn) [Compound 17, 5-chloro-N-(2,6-dioxopiperidin-3-yl)-2-[(2S)-2-hydroxypropanamido]thiophene-3-carboxamide], the negative logarithm of the Ki (pKi) in experiment [1] is 4.30 to 5.00. The “% of IKZF1 protein reduction” value in experiment [2] is ≤25% (≤25% for 0-25% of IKZF1 protein reduction).
Turning to `O=C1CCC(NC(=O)c2cc(Cl)sc2NC(=O)C2CC2)C(=O)N1` (stereo not drawn) [Compound 6, 5-chloro-2-cyclopropaneamido-N-(2,6-dioxopiperidin-3-yl)thiophene-3-carboxamide], the pKi in experiment [1] was over 5.30. Further, the “% of IKZF1 protein reduction” value in experiment [2] is reported as ≤25% (≤25% for 0-25% of IKZF1 protein reduction).
On to `CNC(=O)c1cc(C(=O)NC2CCC(=O)NC2=O)c(NC(C)=O)s1` (stereo not drawn) [Compound 14, 5-acetamido-N^4-(2,6-dioxopiperidin-3-yl)-5-acetamido-N^2-methylthiophene-2,4-dicarboxamide], for which the negative logarithm of the Ki (pKi) in experiment [1] is 5.00 to 5.30. In addition, the “% of IKZF1 protein reduction” value in experiment [2] was ≤25% (≤25% for 0-25% of IKZF1 protein reduction).
For the molecule `O=C1CCC(NC(=O)c2cnc(C(F)(F)F)s2)C(=O)N1` (stereo not drawn) [Compound 72, N-(2,6-dioxopiperidin-3-yl)-2-(trifluoromethyl)thiazole-5-carboxamide], the “% of IKZF1 protein reduction” value in experiment [2] is given as ≤25% (≤25% for 0-25% of IKZF1 protein reduction).

The values above are taken from patent US20230065745A1, “PIPERIDINE-2,6-DIONE DERIVATIVES WHICH BIND TO CEREBLON, AND METHODS OF USE THEREOF” (Captor Therapeutics S.A., priority 2019, published 2023).
